{"source": "patent US20260166127A1", "about": "“USE OF ANALOG OF C-TYPE NATRIURETIC PEPTIDE FOR THE TREATMENT OF FGFR-RELATED BONE REPAIR AND BONE FORMATION IMPAIRMENT” (INSTITUT NATIONAL DE LA SANTÉ ET DE LA RECHERCHE MÉDICALE, priority 2021, published 2026)", "key": {"[1]": {"test_system": "HCH mouse model (Fgfr3^N534K/+), mandible bone repair", "assay": "Non-stabilized mandibular fracture repair in HCH mice treated with BMN111 (microCT, repair grade)", "assay_type": "in vivo", "description": "Mandibular bone repair was studied in the HCH mouse model (Fgfr3^N534K/+). The experiments were performed in adult animals at 6 weeks of age, and mice were euthanized at 4 key points: during bone repair (10, 14, 21 days post fracture), and at the end of the normal bone healing process i.e. at 28 days post fracture.\nVertical mandibular fractures were performed in the ascending ramus region in Fgfr3^N534K/+ and Fgfr3^+/+ mice. This is a non-stabilized mandibular fracture protocol allowing to analyze the endochondral bone repair process.\nFour batches (n=100) of Fgfr3^N534K/+ and Fgfr3^+/+ mandible fractures corresponding to different key stages of repair were studied (day 10, day 14, day 21, day 28). Using collagen type II (proliferative cartilage), type X (hypertrophic cartilage) and type I (bone) immunolabelling, we observed that the endochondral process is disturbed, we noted a delayed cartilage resorption, a reduction in the size of hypertrophic chondrocytes area and a defect in bone formation within the repair callus in Fgfr3^N534K/+ compared to Fgfr3^+/+. […] We observed the presence of pseudarthrosis (fibrosis in the callus) in Fgfr3^N534K/+ mice whereas we observed 100% of bone in Fgfr3^+/+ callus. Considering the quality of the newly formed bone at day 28, we defined four grades of repair and classified the mice according to their repair grade (from 1 to 4). The defective repair is significant in Fgfr3^N534K/+ compared to Fgfr3^+/+ (FIG. 1C).\nIn order to analyze the bone microarchitecture, we performed microCT scans. We observed an alteration in the microarchitecture of callus formation from day10 to day 28 Fgfr3^N534K/+ compared to Fgfr3^+/+.\nHCH mice (Fgfr3^N534K/+) were treated with BMN111 (subcutaneous injection at 0.8 mg/kg, 3 times per week) from day 0 (facture of the mandible) to day 14 or day 28. The bone repair analyses were evaluated by microCT scans at day 14 and day 28 post fracture. […] BV/TV is increased at day 14 (+29%; p<0.005) in treated HCH mice (n=8) compared to untreated HCH mice (n=9). BV/TV is increased at day 28 post fracture and (+24% p<0.005) in the HCH mice (n=9) compared to the untreated HCH mice (n=14) (FIGS. 1A and 1B)."}, "[2]": {"test_system": "mouse model (Fgfr3^Y367C/+)", "conditions": "human ACH cells and Fgfr3^Y367C/+ mouse model; Lorget et al 2012; cited from earlier work"}, "[3]": {"conditions": "day 28 grade repair, treated HCH mice"}, "[4]": {"conditions": "microCT, day 28 post fracture, treated (n=9) vs untreated (n=14) HCH mice, BMN111 s.c. 0.8 mg/kg 3 times per week, p<0.005"}}, "data": [{"substance": "Vosoritide (PGQEHPNARKYKGANKKGLSKGCFGLKLDRIGSMSGLGC; chains of the INN, looked up) [BMN111, CNP analog, NPR2 agonist; formula C176H290N56O51S3, CAS Number 1480724-61-5]", "values": [{"measurement": "Complete bone healing (grade 1), mice observed", "setting": "[1]; [3]", "value": "7/9"}, {"measurement": "Restoration of bone continuity, but presence of mild bone defects (grade 2), mice observed", "setting": "[1]; [3]", "value": "2/9"}, {"measurement": "BV/TV increase", "setting": "[1]; microCT, day 14 post fracture, treated (n=8) vs untreated (n=9) HCH mice, BMN111 s.c. 0.8 mg/kg 3 times per week, p<0.005", "value": "+29%"}, {"measurement": "callus volume", "setting": "[1]; microCT, day 14 post fracture, treated vs untreated HCH mice, BMN111 s.c. 0.8 mg/kg 3 times per week", "value": "unchanged"}, {"measurement": "BV/TV increase", "setting": "[1]; [4]", "value": "+24%"}, {"measurement": "decrease of the volume of the callus", "setting": "[1]; [4]", "value": "−30.9", "unit": "%"}, {"measurement": "pseudarthrosis in the callus", "setting": "[1]; treated HCH mice, mandible fracture callus", "value": "without pseudarthrosis"}, {"measurement": "effect on long bone growth and the skull", "setting": "[2]", "value": "beneficial effect"}]}]}
